Data taken from ChEMBL document CHEMBL4052697, “Chimeric analogs of human β-defensin 1 and θ-defensin disrupt pre-established bacterial biofilms” (2017).
In brackets after ≈: the same amount, converted by molar mass. Activity calls are given as the source filed them. No cut-off for these calls is given here. Non-standard residues stand in square brackets, D forms with d. Residues, ends and D or L forms follow the SMILES beside them. NMeA = CN[C@@H](C)C(=O)O

How the values were obtained:
Type in all cases: functional
Escherichia coli [1] = assay: Bactericidal activity against Escherichia coli MG1655 planktonic forms
Escherichia coli [2] = assay: Antibiofilm activity against pre-established 36 hrs old bacterial biofilms of Escherichia coli MG1655 incubated for 4 hrs by XTT assay
Staphylococcus aureus [3] = assay: Antibiofilm activity against pre-established 36 hrs old bacterial biofilms of Staphylococcus aureus NCTC 8530 incubated for 4 hrs by XTT assay
Staphylococcus aureus [4] = assay: Bactericidal activity against Staphylococcus aureus NCTC 8530 planktonic forms

| Structure (SMILES) | MBC (Escherichia coli [1]) [µM] | MBEC (Escherichia coli [2]) | MBEC (Staphylococcus aureus [3]) | MBC (Staphylococcus aureus [4]) [µM] |
| --- | --- | --- | --- | --- |
| CCCCCCCCCCCCCC(=O)N[C@@H](CCC(=O)O)C(=O)N[C@@H](CC(C)C)C(=O)N[C@@H](CC(=O)O)C(=O)N[C@H](CCCNC(=N)N)C(=O)N[C@H](C(=O)NCC(=O)N[C@@H](Cc1ccc(O)cc1)C(=O)NCC(=O)N[C@H](C(=O)N[C@@H](C)C(=O)N[C@H](CCCNC(=N)N)C(=O)N[C@H](CCCNC(=N)N)C(=O)N[C@@H](CCCCN)C(=O)N[C@@H](CCCCN)C(=O)N[C@@H](CCCNC(=N)N)C(=O)O)[C@@H](C)O)[C@@H](C)CC | 5 (≈ 10.1 µg/mL) | inactive | inactive | 10 (≈ 20.3 µg/mL) |
| CCCCCCCCCCCC(=O)N[C@@H](C)C(=O)N[C@H](C(=O)N[C@@H](Cc1ccc(O)cc1)C(=O)N[C@H](CCCNC(=N)N)C(=O)N[C@H](C(=O)NCC(=O)N[C@H](CCCNC(=N)N)C(=O)N[C@@H](C)C(=O)N[C@H](C(=O)N[C@H](CCCNC(=N)N)C(=O)N[C@@H](CCC(=O)O)C(=O)N[C@@H](CO)C(=O)N[C@@H](CC(C)C)C(=O)N[C@@H](CO)C(=O)NCC(=O)N[C@H](C(=O)N[C@@H](CCC(=O)O)C(=O)N[C@H](C(=O)N[C@@H](CO)C(=O)NCC(=O)N[C@H](CCCNC(=N)N)C(=O)N[C@@H](CC(C)C)C(=O)N[C@@H](Cc1ccc(O)cc1)C(=O)N[C@H](CCCNC(=N)N)C(=O)N[C@@H](CC(C)C)C(=O)N[C@@H](CCCNC(=N)N)C(=O)O)[C@@H](C)CC)C(C)C)[C@@H](C)O)[C@@H](C)O)[C@@H](C)O | 10 (≈ 31.5 µg/mL) | inactive | inactive | 20 (≈ 63 µg/mL) |
| CC[C@H](C)[C@H](NC(=O)[C@H](CCCNC(=N)N)NC(=O)[C@H](CC(=O)O)NC(=O)[C@H](CC(C)C)NC(=O)[C@@H](N)CCC(=O)O)C(=O)NCC(=O)N[C@@H](Cc1ccc(O)cc1)C(=O)NCC(=O)N[C@H](C(=O)N[C@@H](C)C(=O)N[C@@H](CCCNC(=N)N)C(=O)N[C@@H](CCCNC(=N)N)C(=O)N[C@H](CCCCN)C(=O)N[C@H](CCCCN)C(=O)N[C@@H](CCCNC(=N)N)C(=O)O)[C@@H](C)O | 20 (≈ 36.4 µg/mL) | inactive | inactive | 60 (≈ 109 µg/mL) |
| CCCCCCCCCCCCCC(=O)N[C@@H](CCC(=O)O)C(=O)N[C@@H](CC(C)C)C(=O)N[C@@H](CC(=O)O)C(=O)N[C@@H](CCCNC(=N)N)C(=O)N[C@H](C(=O)NCC(=O)N[C@@H](Cc1ccc(O)cc1)C(=O)NCC(=O)N[C@H](C(=O)N[C@@H](C)C(=O)N[C@@H](CCCNC(=N)N)C(=O)N[C@@H](CCCNC(=N)N)C(=O)N[C@H](CCCCN)C(=O)N[C@H](CCCCN)C(=O)N[C@@H](CCCNC(=N)N)C(=O)O)[C@@H](C)O)[C@@H](C)CC | 5 (≈ 10.1 µg/mL) | inactive | inactive | 10 (≈ 20.3 µg/mL) |
| CCCCCCCCCCCC(=O)N[C@@H](C)C(=O)N[C@H](C(=O)N[C@@H](Cc1ccc(O)cc1)C(=O)N[C@@H](CCCNC(=N)N)C(=O)N[C@H](C(=O)NCC(=O)N[C@@H](CCCNC(=N)N)C(=O)N[C@@H](C)C(=O)N[C@H](C(=O)N[C@@H](CCCNC(=N)N)C(=O)N[C@@H](CCC(=O)O)C(=O)N[C@@H](CO)C(=O)N[C@@H](CC(C)C)C(=O)N[C@@H](CO)C(=O)NCC(=O)N[C@H](C(=O)N[C@@H](CCC(=O)O)C(=O)N[C@H](C(=O)N[C@@H](CO)C(=O)NCC(=O)N[C@@H](CCCNC(=N)N)C(=O)N[C@@H](CC(C)C)C(=O)N[C@@H](Cc1ccc(O)cc1)C(=O)N[C@@H](CCCNC(=N)N)C(=O)N[C@@H](CC(C)C)C(=O)N[C@@H](CCCNC(=N)N)C(=O)O)[C@@H](C)CC)C(C)C)[C@@H](C)O)[C@@H](C)O)[C@@H](C)O | 20 (≈ 63 µg/mL) | inactive | inactive | 2 (≈ 6.3 µg/mL) |
| CCCCCCCCCCCCCC(=O)N[C@@H](C)C(=O)N[C@@H](Cc1ccccc1)C(=O)N[C@H](C(=O)N[C@@H](CCCNC(=N)N)C(=O)N[C@@H](CCCNC(=N)N)C(=O)N[C@@H](CCCNC(=N)N)C(=O)N[C@@H](CO)C(=O)N[C@@H](Cc1ccc(O)cc1)C(=O)N[C@@H](CO)C(=O)N[C@H](C(=O)N[C@@H](CCC(=O)O)C(=O)N[C@@H](Cc1ccc(O)cc1)C(=O)N[C@@H](CO)C(=O)N[C@@H](Cc1ccc(O)cc1)C(=O)NCC(=O)N[C@H](C(=O)N[C@H](C(=O)N[C@H](C(N)=O)C(C)C)[C@@H](C)O)[C@@H](C)O)[C@@H](C)O)[C@@H](C)O | 10 (≈ 23.5 µg/mL) | inactive | inactive | 20 (≈ 47.1 µg/mL) |
| CCCCCCCCCCCCCC(=O)N[C@@H](C)C(=O)N[C@@H](Cc1ccccc1)C(=O)N[C@H](C(=O)N[C@H](CCCNC(=N)N)C(=O)N[C@H](CCCNC(=N)N)C(=O)N[C@H](CCCNC(=N)N)C(=O)N[C@@H](CO)C(=O)N[C@@H](Cc1ccc(O)cc1)C(=O)N[C@@H](CO)C(=O)N[C@H](C(=O)N[C@@H](CCC(=O)O)C(=O)N[C@@H](Cc1ccc(O)cc1)C(=O)N[C@@H](CO)C(=O)N[C@@H](Cc1ccc(O)cc1)C(=O)NCC(=O)N[C@H](C(=O)N[C@H](C(=O)N[C@H](C(N)=O)C(C)C)[C@@H](C)O)[C@@H](C)O)[C@@H](C)O)[C@@H](C)O | 20 (≈ 47.1 µg/mL) | inactive | inactive | 50 (≈ 118 µg/mL) |
| CC[C@H](C)[C@H](NC(=O)CNC(=O)[C@H](CCCNC(=N)N)NC(=O)[C@@H](NC(=O)[C@@H](NC(=O)[C@@H](NC(=O)CNC(=O)[C@H](Cc1ccc(O)cc1)NC(=O)[C@H](CCCNC(=N)N)NC(=O)[C@H](Cc1ccc(O)cc1)NC(=O)[C@H](CCC(=O)O)NC(=O)[C@@H](NC(=O)[C@H](CO)NC(=O)[C@H](Cc1ccc(O)cc1)NC(=O)[C@H](CO)NC(=O)[C@H](CCCNC(=N)N)NC(=O)[C@H](CCCNC(=N)N)NC(=O)[C@H](Cc1cnc[nH]1)NC(=O)[C@@H](NC(=O)[C@H](Cc1ccccc1)NC(=O)[C@H](C)NC)[C@@H](C)O)[C@@H](C)O)[C@@H](C)O)[C@@H](C)O)C(C)C)C(=O)N[C@@H](CCCNC(=N)N)C(=O)N[C@@H](Cc1cnc[nH]1)C(=O)N[C@@H](CCCNC(=N)N)C(=O)N[C@@H](Cc1ccccc1)C(=O)N[C@@H](CC(C)C)C(=O)O (H-[NMeA]FTHRRSYSTEYRYGTTVRGIRHRFL-OH) | 10 (≈ 32.5 µg/mL) | inactive | inactive | 10 (≈ 32.5 µg/mL) |
| CCCCCCCCCCCCCC(=O)N[C@@H](C)C(=O)N[C@H](C(=O)N[C@@H](Cc1ccc(O)cc1)C(=O)N[C@H](CCCNC(=N)N)C(=O)N[C@H](C(=O)NCC(=O)N[C@H](CCCNC(=N)N)C(=O)N[C@@H](C)C(=O)N[C@H](C(=O)N[C@H](CCCNC(=N)N)C(=O)N[C@@H](CCC(=O)O)C(=O)N[C@@H](CO)C(=O)N[C@@H](CC(C)C)C(=O)N[C@@H](CO)C(=O)NCC(=O)N[C@H](C(=O)N[C@@H](CCC(=O)O)C(=O)N[C@H](C(=O)N[C@@H](CO)C(=O)NCC(=O)N[C@H](CCCNC(=N)N)C(=O)N[C@@H](CC(C)C)C(=O)N[C@@H](Cc1ccc(O)cc1)C(=O)N[C@H](CCCNC(=N)N)C(=O)N[C@@H](CC(C)C)C(=O)N[C@@H](CCCNC(=N)N)C(=O)O)[C@@H](C)CC)C(C)C)[C@@H](C)O)[C@@H](C)O)[C@@H](C)O | 5 (≈ 15.9 µg/mL) | inactive | inactive | 7.5 (≈ 23.8 µg/mL) |
| CCCCCCCCCCCCCC(=O)N[C@@H](C)C(=O)N[C@H](C(=O)N[C@@H](Cc1ccc(O)cc1)C(=O)N[C@@H](CCCNC(=N)N)C(=O)N[C@H](C(=O)NCC(=O)N[C@@H](CCCNC(=N)N)C(=O)N[C@@H](C)C(=O)N[C@H](C(=O)N[C@@H](CCCNC(=N)N)C(=O)N[C@@H](CCC(=O)O)C(=O)N[C@@H](CO)C(=O)N[C@@H](CC(C)C)C(=O)N[C@@H](CO)C(=O)NCC(=O)N[C@H](C(=O)N[C@@H](CCC(=O)O)C(=O)N[C@H](C(=O)N[C@@H](CO)C(=O)NCC(=O)N[C@@H](CCCNC(=N)N)C(=O)N[C@@H](CC(C)C)C(=O)N[C@@H](Cc1ccc(O)cc1)C(=O)N[C@@H](CCCNC(=N)N)C(=O)N[C@@H](CC(C)C)C(=O)N[C@@H](CCCNC(=N)N)C(=O)O)[C@@H](C)CC)C(C)C)[C@@H](C)O)[C@@H](C)O)[C@@H](C)O | 5 (≈ 15.9 µg/mL) | inactive | inactive | 7.5 (≈ 23.8 µg/mL) |
| CC[C@H](C)[C@H](NC(=O)[C@H](CCC(=O)O)NC(=O)[C@@H](NC(=O)CNC(=O)[C@H](CO)NC(=O)[C@H](CC(C)C)NC(=O)[C@H](CO)NC(=O)[C@H](CCC(=O)O)NC(=O)[C@H](CCCNC(=N)N)NC(=O)[C@@H](NC(=O)[C@H](C)NC(=O)[C@H](CCCNC(=N)N)NC(=O)CNC(=O)[C@@H](NC(=O)[C@H](CCCNC(=N)N)NC(=O)[C@H](Cc1ccc(O)cc1)NC(=O)[C@@H](NC(=O)[C@H](C)N)[C@@H](C)O)[C@@H](C)O)[C@@H](C)O)C(C)C)C(=O)N[C@@H](CO)C(=O)NCC(=O)N[C@@H](CCCNC(=N)N)C(=O)N[C@@H](CC(C)C)C(=O)N[C@@H](Cc1ccc(O)cc1)C(=O)N[C@@H](CCCNC(=N)N)C(=O)N[C@@H](CC(C)C)C(=O)N[C@@H](CCCNC(=N)N)C(=O)O | 50 (≈ 148 µg/mL) | inactive | inactive | > 100 |
| CC[C@H](C)[C@H](NC(=O)[C@H](CCC(=O)O)NC(=O)[C@@H](NC(=O)CNC(=O)[C@H](CO)NC(=O)[C@H](CC(C)C)NC(=O)[C@H](CO)NC(=O)[C@H](CCC(=O)O)NC(=O)[C@@H](CCCNC(=N)N)NC(=O)[C@@H](NC(=O)[C@H](C)NC(=O)[C@@H](CCCNC(=N)N)NC(=O)CNC(=O)[C@@H](NC(=O)[C@@H](CCCNC(=N)N)NC(=O)[C@H](Cc1ccc(O)cc1)NC(=O)[C@@H](NC(=O)[C@H](C)N)[C@@H](C)O)[C@@H](C)O)[C@@H](C)O)C(C)C)C(=O)N[C@@H](CO)C(=O)NCC(=O)N[C@H](CCCNC(=N)N)C(=O)N[C@@H](CC(C)C)C(=O)N[C@@H](Cc1ccc(O)cc1)C(=O)N[C@H](CCCNC(=N)N)C(=O)N[C@@H](CC(C)C)C(=O)N[C@@H](CCCNC(=N)N)C(=O)O | 50 (≈ 148 µg/mL) | inactive | inactive | > 100 |
